Consider seven compounds from article PMC9821843, “Powerful Potential of Polyfluoroalkyl-Containing 4-Arylhydrazinylidenepyrazol-3-ones for Pharmaceuticals” (Molecules, 2022).

Values after ≈ are worked out from the molar mass of the structure shown. Like-named read-outs stand apart in the source and are kept apart here.

One data set deals with Sprague-Dawley (SD) rats. Nature of the data set: Hot plate test (analgesic activity). Type of data set: in vivo. To be noted: ip; for change in vivo at 15 mg/kg: Rattus norvegicus. The protocol:
The hot plate test was conducted according to established guidelines on Sprague-Dawley (SD) rats (3 male and 3 female rodents per group). The compounds were intraperitoneally administered in the form of suspensions in 1% starch mucilage. Negative control group animals received vehicle only (1% starch mucilage). Diclofenac sodium (Hemofarm, Vršac, Serbia, 10 mg/kg in 1% starch mucilage solution) or metamizole sodium (PAO Biosynthesis, Sun Pharma, Penza, Russia, 15 mg/kg in 1% starch mucilage solution) were used as reference drugs. One and two hours after the injection, rats were placed on an electrically heated to 50 °C plate (Hot plate 60,200 series, TSE-systems, Bad Homburg, Germany) in a Plexiglas cylindrical restrainer (19 cm diameter × 30 cm). The nociceptive response time was measured by observing the appearance of rats’ movements (e.g., jumping, hind paw licking or shaking). Maximal cutoff time was set as 30 s regardless of the response in order to preclude skin damage.
Differences between the values of the latency period for the treated (experimental) and control groups of animals were considered significant at p ≤ 0.05.

The nature of data set [1]: Oxygen radical absorbance capacity (ORAC-FL) assay. As to conditions: n.a. = inactive; i.t.s. = interferes with test system. From the text: We evaluated the primary antioxidant activity of synthesized 4-AHPs 5–9 in comparison with their non-fluorinated analogues 9a,b using three standard tests: ABTS, FRAP (ferric reducing antioxidant power) and ORAC (oxygen radical absorbance capacity) assays. The ABTS assay evaluates the binding of a model ABTS radical cation (ABTS^•+), which is realized by the mechanism of single electron transfer (SET) and/or hydrogen atom transfer (HAT). The FRAP assay measures the ability of compounds to reduce the ferric 2,4,6-tripyridyl-s-triazine complex [Fe(TPTZ)2]^3+ to [Fe(TPTZ)2]^2+, which occurs exclusively by the SET mechanism. The ORAC-FL assay measures the oxidative degradation of the fluorescent molecule (FL – fluorescein) after being mixed with a free peroxyl radical generator such as 2,2′-azobis-(2-methylpropionamidine) dihydrochloride (AAPH) in the presence of antioxidant (tested compound). The ORAC-FL test describes the antioxidants’ ability to yield the hydrogen atom and, consequently, it is a HAT-based assay. Trolox was used in all tests as a reference antioxidant: the antioxidant activity of the test compounds was referred to the activity of Trolox. The well-known antioxidant Edaravone was also used for comparison.
The ORAC assay was performed according to the known method, with minor variations and described by us recently.

Data set [2] addresses T1, equine serum butyrylcholinesterase (BChE, EC 3.1.1.8) (Equus caballus, UniProt P81908).
T1 construct: equine serum butyrylcholinesterase (BChE, EC 3.1.1.8); purchased Sigma-Aldrich (Saint Louis, MO, USA); host or cells: equine serum
Nature of the data set: Inhibition of equine serum butyrylcholinesterase (Ellman assay). Type of data set: biochemical. To be noted: read-out: Inhibition % at 20 µM, Equine BChE. From the text: The following enzymes were purchased from Sigma-Aldrich (Saint Louis, MO, USA): porcine liver carboxylesterase (CES, EC 3.1.1.1), human erythrocyte acetylcholinesterase (AChE, EC 3.1.1.7) and equine serum butyrylcholinesterase (BChE, EC 3.1.1.8). Substrates for CES, AChE and BChE were 4-nitrophenyl acetate (4-NPA), acetylthiocholine iodide (ATCh) and butyrylthiocholine iodide (BTCh), respectively, and the colorimetric reagent for the AChE and BChE assays was 5,5’-dithio-bis-(2-nitrobenzoic acid) (DTNB) (Sigma-Aldrich). All the kinetic experiments were performed under standard conditions, according to the protocol of IPAC RAS for a reversible inhibitors study.
Final concentrations of reactants were 0.33 mM DTNB, 0.02 unit/mL of AChE or BChE and 1 mM of substrate (ATCh or BTCh, respectively). Reagent blanks consisted of reaction mixtures without enzyme to assess non-enzymatic hydrolysis of substrates.
Test compounds were dissolved in DMSO. Reaction mixtures contained a final DMSO concentration of 2% (v/v). […] Substrate was then added and residual enzyme activity relative to an inhibitor-free control was measured using a Bio-Rad Benchmark Plus microplate reader (Marnes-la-Coquette, France).
Measurements were performed in a Bio-Rad Benchmark Plus microplate reader. Each experiment was performed in triplicate. Plots, linear regressions and values of IC50, were determined using Origin 6.1 for Windows, OriginLab (Northampton, MA, USA).

The nature of data set [3]: Acute toxicity evaluation in mice (ip). As to conditions: CD-1, mouse, in vivo, 300 mg/kg. The protocol:
The toxicity evaluation was performed on CD-1 mice. […] The tested compounds in 1% starch mucilage were injected intraperitoneally into three mice. Then, animals were observed during 14 days, the number of deaths was counted and % of viability calculated.

Data set [4] concerns Candida albicans RCPF Y 401/NCTC 885/653. Nature of the data set: Antifungal susceptibility testing, C. albicans. As to conditions: NCTC885, read-out: MIC for fungi strains inhibition, C. albicans.
Text: (§1) The solvent was DMSO. […] In each test, a growth control and a sterility control were used.
Data set [5] in a line: ABTS radical cation scavenging activity assay. As to conditions: mean ± SEM; for ABTS•+-scavenging activity, TEAC (trolox equivalent antioxidant capacity): n.a. = inactive. Also on record: key to ABTS•+-scavenging activity, TEAC (trolox equivalent antioxidant capacity): TEAC = ratio of compound slope to Trolox slope vs ABTS absorbance. As to the method:
Radical scavenging activity of the compounds was evaluated by the ABTS radical cation (ABTS^•+) scavenging assay by the ability of the compounds to decolorize the ABTS^•+ solution [112] with some modifications. Trolox was used as a reference standard. Edaravone was used as the comparison compound. All tested compounds and standards were dissolved in DMSO. ABTS (2,2′-azinobis-(3-ethylbenzothiazoline-6-sulfonic acid)) was purchased from Tokyo Chemical Industry Co. Ltd. (Tokyo, Japan). Potassium persulfate (di-potassium peroxdisulfate), Trolox® (6-hydroxy-2,5,7,8-tetramethychroman-2-carboxylic acid), ascorbic acid, DMSO and HPLC-grade ethanol were obtained from Sigma-Aldrich Chemical Co. Aqueous solutions were prepared using deionized water.
The solution of ABTS^•+ was produced by mixing 7 mM ABTS aqueous solution with 2.45 mM potassium persulfate aqueous solution in equal quantities and allowing them to react for 12–16 h at room temperature in the dark. Radical scavenging capacity of the compounds was analyzed by mixing 10 μL of compound with 240 μL of ABTS^•+ working solution in ethanol (100 μM final concentration), and after 1 h of incubation at 30 °C the decrease in absorbance was measured spectrophotometrically at 734 nm using a Bio-Rad xMark microplate UV/VIS spectrophotometer (Bio-Rad, Hercules, CA, USA). The compounds were tested in the concentration range of 5 × 10^–7–4 × 10^–4 M. Ethanol blanks were run in each assay. Values were obtained from five replicates of each sample and three independent experiments.
Antioxidant activity was calculated as Trolox equivalent antioxidant capacity (TEAC values), consisting of the ratio between the slopes obtained from the linear correlation for concentrations of the tested compounds and Trolox with absorbance of ABTS radical. For the test compounds, which reduce ABTS^•+ absorbance by more than 60% at 100 µM, we also determined IC50 values as 50% reduction of the ABTS radical. The calculations were carried out using Origin 6.1 for Windows. Results were presented as mean ± SEM, calculated using GraphPad Prism version 6.05 for Windows, GraphPad Software.

For data set [6], the system named is Trichophyton rubrum RCPF F 1408. The data set is described as follows: Antifungal susceptibility testing, T. rubrum. As to conditions: Trichophyton rubrum, RCPFF1408, read-out: MIC for fungi strains inhibition, T. rubrum.
Text: as §1
For data set [7], the system named is Epidermophyton floccosum RCPF F 1659/17. Nature of the data set: Antifungal susceptibility testing, E. floccosum. As to conditions: Epidermophyton floccosum, RCPFF1659/17, read-out: MIC for fungi strains inhibition, E. floccosum.
Text: as §1
The test system of data set [8] is Microsporum canis RCPF F 1643/1585. Nature of the data set: Antifungal susceptibility testing, M. canis. To be noted: Microsporum canis, RCPFF1643/1585, read-out: MIC for fungi strains inhibition, M. canis.
Text: as §1
Data set [9] relates to Neisseria gonorrhoeae ATCC 49226/NCTC 12700. The data set is described as follows: Antibacterial activity against Neisseria gonorrhoeae. Type of data set: cell-based. To be noted: read-out: MIC against Neisseria gonorrhoeae. The protocol:
Antibacterial activity testing was done on the growth medium Difco GC medium base (Becton Dickinson, Franklin Lakes, NJ, USA) supplemented with 1% IsoVitaleX. Dilutions of chemical compounds were carried out in the range of 250–0.12 μg/mL in 24 well sterile plates (Sarstedt, Germany). Daily cultures of control bacterial strains were identified on a VITEK MS analyzer (BioMérieux, Marcy-l’Étoile, France) by MALDI-TOF mass spectrometry. The inoculation dose of N. gonorrhoeae inoculum was 10^5 CFU/mL.

The mark [10] stands for this setting: hot plate test, rats, dose 15 mg/kg, 2 h, n.a. = inactive (p > 0.05), read-out: Latent Period Prolongation, % 2 h.
The mark [11] stands for this setting: hot plate test, rats, dose 15 mg/kg, 1 h, n.a. = inactive (p > 0.05), read-out: Latent Period Prolongation, % 1 h.

T1 sequence (P81908 whole entry): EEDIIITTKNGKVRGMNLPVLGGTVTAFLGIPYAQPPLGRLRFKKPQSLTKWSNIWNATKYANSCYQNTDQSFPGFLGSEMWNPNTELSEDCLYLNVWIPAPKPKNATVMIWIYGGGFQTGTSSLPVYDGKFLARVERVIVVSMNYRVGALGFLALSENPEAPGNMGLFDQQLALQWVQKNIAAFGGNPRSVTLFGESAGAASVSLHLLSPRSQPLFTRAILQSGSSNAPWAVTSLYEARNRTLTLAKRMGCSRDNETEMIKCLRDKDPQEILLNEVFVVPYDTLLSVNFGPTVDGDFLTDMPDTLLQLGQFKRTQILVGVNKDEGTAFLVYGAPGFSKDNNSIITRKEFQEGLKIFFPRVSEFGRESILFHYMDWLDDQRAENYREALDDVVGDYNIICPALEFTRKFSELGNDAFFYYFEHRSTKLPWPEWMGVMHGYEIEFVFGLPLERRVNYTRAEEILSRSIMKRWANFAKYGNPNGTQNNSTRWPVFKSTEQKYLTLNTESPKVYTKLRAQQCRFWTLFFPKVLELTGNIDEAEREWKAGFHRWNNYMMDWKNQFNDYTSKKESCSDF

For `NS(=O)(=O)c1ccc(N/N=C2\C(=O)N(c3ccccc3)N=C2C(F)(F)F)cc1` [5n, (4Z)-4-(2-[4-(Aminosulfonyl)phenyl]hydrazinylidene)-2-phenyl-5-(trifluoromethyl)-2,4-dihydro-3H-pyrazol-3-one], the change in vivo at 15 mg/kg with Sprague-Dawley (SD) rats (setting [10]) came to 84%. In data set [1], the “ORAC-FL (TE, antioxidant activity in Trolox equivalents)” value was “i.t.s”. Moreover, the inhibition at 20 µM in [2] was 3.5 ± 0.6%. Further, in data set [3], the survival at 14 days was found to be 100%.

For the compound `Cc1ccc(N/N=C2\C(=O)NN=C2C(F)(F)C(F)(F)C(F)(F)C(F)(F)F)cc1` [8a, (4Z)-5-(Nonafluorobutyl)-4-[2-(4-methylphenyl)hydrazinylidene]-2,4-dihydro-3H-pyrazol-3-one], the change in vivo at 15 mg/kg worked out at 62.9% in the data set with Sprague-Dawley (SD) rats (1 h, read-out: Latent Period Prolongation, % 1 h) and 40.4% in the data set on Sprague-Dawley (SD) rats (2 h, read-out: Latent Period Prolongation, % 2 h). The MIC in data set [4] was greater than 200 µg/mL; in [6] it was greater than 200 µg/mL; in [7], greater than 200 µg/mL; in data set [8] it was greater than 200 µg/mL; in [9] it was 250 µg/mL (≈ 595 µM). Also, the IC50 in data set [5] worked out at 48.3 ± 2.2 µM. Besides, in [5], the “ABTS•+-scavenging activity, TEAC (trolox equivalent antioxidant capacity)” value was found to be 0.43 ± 0.03. For the same compound, in data set [1], the “ORAC-FL (TE, antioxidant activity in Trolox equivalents)” value is reported as 2.33 ± 0.15. In data set [3], the survival at 14 days stood at 100%.

Take `Cc1c(N(C)CS(=O)(=O)O)c(=O)n(-c2ccccc2)n1C` [metamizole, reference compound]: the figures for the change in vivo at 15 mg/kg with Sprague-Dawley (SD) rats (setting [11]) and in the data set with Sprague-Dawley (SD) rats (setting [10]) were 34.2 ± 11.3% and 64.6 ± 22.5%, respectively. The same compound showed a survival at 14 days in [3] of 100%.

`O=C1/C(=N\Nc2cccc(Cl)c2)C(C(F)(F)C(F)(F)F)=NN1c1ccccc1` [6d, (4Z)-4-[2-(3-Chlorophenyl)hydrazinylidene]-5-(pentafluoroethyl)-2-phenyl-2,4-dihydro-3H-pyrazol-3-one]: the figures for the change in vivo at 15 mg/kg in the data set with Sprague-Dawley (SD) rats (setting [11]) and with Sprague-Dawley (SD) rats (setting [10]) were 93% and 63%, respectively. The MIC is greater than 200 µg/mL in data set [4]; greater than 200 µg/mL in [6]; 200 µg/mL (≈ 480 µM) in data set [7]; greater than 200 µg/mL in data set [8]; 15.6 µg/mL (≈ 37.4 µM) in data set [9]. In addition, the inhibition at 20 µM in [2] is 7.8 ± 1.2%. The survival at 14 days in [3] was 100%.

Consider `O=C1/C(=N\Nc2c(Cl)cccc2Cl)C(C(F)(F)F)=NN1c1ccccc1` [5j, (4Z)-4-[2-(2,6-Dichlorophenyl)hydrazinylidene]-2-phenyl-5-(trifluoromethyl)-2,4-dihydro-3H-pyrazol-3-one], for which the “analgesic activity in the hot plate test” value with Sprague-Dawley (SD) rats (SD rats, dose 15 mg/kg, 1 and 2 h) is “inactive”. Further, the MIC in data set [4] was greater than 200 µg/mL; in [6], greater than 200 µg/mL; in data set [7] it was greater than 200 µg/mL; in data set [8] it was greater than 200 µg/mL; in data set [9] it was 31.2 µg/mL (≈ 77.8 µM). In addition, the inhibition at 20 µM in [2] turned out to be 7.1 ± 1.2%. In data set [3], this compound yielded a survival at 14 days of 100%.

Take `Cc1ccc(N/N=C2\C(=O)N(c3ccc(C)cc3)N=C2C(F)(F)F)cc1` [5r, (4Z)-2-(4-Methylphenyl)-4-[2-(4-methylphenyl)hydrazinylidene]-5-(trifluoromethyl)-2,4-dihydro-3H-pyrazol-3-one]: the change in vivo at 15 mg/kg with Sprague-Dawley (SD) rats (setting [11]) is 63.2%; with Sprague-Dawley (SD) rats (setting [10]) it was 74.2%. The MIC in [4] was greater than 200 µg/mL; in [6] it was greater than 200 µg/mL; in [7], greater than 200 µg/mL; in data set [8], greater than 200 µg/mL; in data set [9] it was greater than 250 µg/mL. The “ABTS•+-scavenging activity, TEAC (trolox equivalent antioxidant capacity)” value in [5] turned out to be 0.13 ± 0.007. Also, the inhibition at 20 µM in data set [2] was found to be 4 ± 1%. This compound also showed a survival at 14 days in data set [3] of 100%.

For the compound `CN[C@@H]1[C@H](O)[C@H](NC)[C@H]2O[C@@]3(O)C(=O)C[C@@H](C)O[C@H]3O[C@@H]2[C@H]1O` [Spectinomycin, reference compound], the MIC in [9] was determined as 15.6 µg/mL (≈ 46.9 µM).
